Patent publication US8497352B2, “Use of Wnt5-α peptide derivates for the treatment of melanoma and gastric cancer” (Wntresearch AB, priority 2008, dated 2013)
Entries after “also recorded” stand apart in the source; their conditions may differ. Bridges are numbered along the chain shown (N, C = ends). Where no end group is shown, it is not given here. The star is where a group is joined. Boc = CC(C)(C)OC(=O)*

Experiments:
Assay type in all cases: cell-based, human
A2058 melanoma cells [1] = experiment: BD Matrigel invasion chamber assay, A2058 cells
Procedure: (§1) Cell invasion was analyzed using the BD Matrigel™ invasion chamber assay (BD Biosciences, Bedford, Mass.). Prior to the initiation of each experiment, the cells were detached with Versene and re-suspended as single cells in serum-free RPMI medium. As indicated, cells were pre-incubated with the Box5 peptide (100 μM) or control solvent for 40 min with continuous agitation. An aliquot of the cell suspension containing 25,000 cells and 100 μM Box5 or control solvent was then added to the upper transwell chamber, and the lower chamber was filled with serum-containing (10%) medium. The invasion chambers were shaken horizontally for 5 min to ensure even distribution of the cells in suspension and subsequently across the membrane surface. The cells were allowed to invade for the periods of time indicated at 37° C. in a humidified atmosphere of 5% CO2. The medium was discarded and cells were fixed in 4% paraformaldehyde for 10 min. The cells were stained with 0.5% crystal violet in 20% methanol for 10 min and the non-invading cells on the inner side of the membrane were removed with a cotton-tipped applicator. The membrane was cut out of the chamber using a scalpel blade and the stained cells on the lower chamber side of the membrane were counted.

[2] = tested on: Wnt-5a protein expression; experiment: Wnt-5a protein expression in A2058 cells, Western blot
Procedure: (§2) The cells were either directly lysed in 1× Laemmli buffer containing DTT and boiled for 10 min, or lysed in buffer containing 50 mM Tris-HCl (pH 7.5), 1% Triton X-100, 100 mM NaCl, 10 mM MgCl2, 20% glycerol, 1 mM Na3VO4, and protease inhibitors (20 μg/ml aprotinin, 1 μg/ml leupeptin, 2.5 mM benzamidine, and 2 mM pefabloc). Cell treated with lysis buffer were centrifuged at 15,000 rpm for 5 min at 4° C. The protein content in each sample was determined and adjusted to ensure equal loading of protein in each lane. Thereafter, 50 mM DTT and 5× concentrated Laemmli buffer was added and the samples boiled for 5 min. The samples were separated by SDS polyacrylamide gel electrophoresis and subsequently transferred to PVDF membranes. For immunoblotting the membranes were blocked in PBS supplemented with 0.2% Tween 20 and 1% non-fat milk for Wnt-5a or 3% non-fat milk as for all other antibodies for 1 h. Thereafter the membranes were incubated for 1 h at room temperature or overnight at 4° C. with the indicated primary Ab (1:25,000 for β-actin; 1:1,000 for Wnt-5a and 1:1,000 for TGF-β1) in 2% non-fat milk or 1.5% BSA. After extensive washing in PBS with 0.2% Tween, the membranes were incubated for 1 h with a horseradish peroxidase-conjugated secondary Ab in 2% non-fat milk or 1.5% BSA and again extensively washed. Finally, the Ab-antigen complexes were detected using enhanced chemiluminescence. […]

A2058 melanoma cells [3] = experiment: Wound-healing assay (migration), A2058 cells
Procedure: (§3) Cells were plated in 12 well plates and allowed to grow into a confluent layer in complete RPMI (for A2058 cells) or complete McCoy's 5A medium (for HTB63 cells). As indicated, cells were pre-incubated with the Box5 peptide (100 μM) or control solvent for 40 min with continuous agitation. A wound was then inflicted by making a scratch through the confluent layer of cells with a pipette tip. During the migration period of the assay, cells were incubated either in serum-free medium or in the case of HTB63 cells in their own serum-free-conditioned medium collected from cells cultured for 48 h and used within 2 days after collection. The exact conditions of each experiment are described above. To avoid loss of activity, cell medium was changed after 24 hours. A picture for each scratch was taken in the same area of cells at 0, 16, 24, 40 and 48 hours, and wound healing was measured as percentage of wound area closed. For each experimental condition wound healing was analysed in triplicate. All data were based on 3 to 8 separate experiments as indicated.

A2058 melanoma cells [4] = experiment: Cell adhesion assay, A2058 cells; conditions: TGF-β1, 60 min adhesion
Procedure: Cells pre-treated and stimulated as described below were detached with Versene, re-suspended in serum-free RPMI medium and samples containing 30,000 cells from each treatment group were added to each well of a 96-well plate The cells were allowed to adhere for 60 min at 37° C. in a humidified atmosphere of 5% carbon dioxide after which the non-adherent cells were washed away with PBS. The adherent cells were fixed in 1% glutaraldehyde for 10 min at room temperature and then stained with 0.5% crystal violet in 20% methanol for 10 min. Finally the stain from each group of cells was dissolved in 50% acetic acid. The amount of dissolved stain from each well was thereafter measured in a Fluostar plate reader (BMG Lab Technologies GmbH, Offenberg, Germany) at 544 nm. The individual samples from each separate experiment were analysed in quadruplicate and the accumulated data were based on 5 separate experiments. The results are illustrated in FIG. 4. • A) A2058 melanoma cells were stimulated with the indicated concentrations of Wnt-5a, detached with Versene and resuspended as single cells in serum-free medium in the presence or absence of recombinant Wnt-5a at the indicated concentrations. Cells were then allowed to adhere in a 96-well plate. After a period of 60 min the non-adherent cells were washed away while the adherent cells were stained and their number determined. This number is presented as a percentage of the control (no Wnt-5a) stimulation (FIG. 4A) • B) A2058 melanoma cells were cultured to confluence in a 12-well plate after which a scratch was inflicted in each well, the medium was changed to fresh serum-free medium lacking (closed circles) or containing 0.2 μg/ml Wnt-5a (open squares). (FIG. 4B) • C) A2058 melanoma cells were cultured to confluence in a 12-well plate after which a scratch was inflicted to each well, the medium was changed to fresh serum-free medium in the absence of any additive (closed circle), the presence of 0.2 μg/ml Wnt-5a alone (open squares) or the presence of 0.2 μg/ml Wnt-5a with 100 μM Box5 (open triangle). (FIG. 4C) • D) HTB63 melanoma cells were cultured to confluence in a 12-well dish after which a scratch was inflicted to each well, the medium was changed to fresh serum-free medium (closed circle), conditioned medium (open squares) or conditioned medium supplemented with 100 μM Box5 (open triangle). To record changes in migration in panels B-D, a picture was taken from each scratch/well from the same area of cells after 0, 16, 24, 40 or 48 hours, and the wound-healing was expressed as percentage of wound area closed. […] The cells were then allowed to invade for 24 hours after which the attached cells on the lower side of the membrane were counted. […]

[5] = tested on: Wnt-5a-induced Ca^2+ signaling; experiment: Determination of cytosolic free calcium levels (fura-2) in A2058 cells; conditions: for Cytosolic Ca^2+ response in A2058 cells, control G-protein coupled receptor ligands: endothelin-1 10 nM, charbacol 5 μM
Procedure: Cells grown on a glass cover slip were incubated with 4 μM fura-2/AM in culture medium for 30 minutes at 37° C. (Dejmek et al., 2006). After fura-2 loading of the cells, the cover slips were washed and mounted in a specially designed chamber to which was added a calcium-containing medium (136 mM NaCl, 4.7 mM KCl, 1.2 mM MgSO4, 1.1 mM CaCl2, 1.2 KH2PO4, 5 mM NaHCO3, 5.5 mM glucose and 20 mM Hepes, pH 7.4). The chamber was then placed in a system consisting of a NIKON Diaphot microscope connected to a Photon Technology International (PTI) imaging system. The cells were first allowed to rest for 10 minutes before any stimulation was performed. Fura-2 fluorescence was then recorded continuously from the cells before and after the stimulations with either Wnt-5a, endothelin-1 or charbacol (as indicated in the legend to FIG. 8) using an excitation wavelength rapidly alternating between 340 and 380 nm, while the emission wavelength was set at 510 nm. The fluorescence intensity ratios (340/380 nm) were subsequently calculated and analyzed using the PTI Image Master Software. Statistical analysis—The Student's t-test for unpaired samples was used to analyze differences in the experiments, where *=p<0.05, **=p<0.01, and ***=p<0.001

HTB63 melanoma cells [6] = experiment: BD Matrigel invasion chamber assay, HTB63 cells; conditions: 100 μM Box5, 24 hours
Procedure: as §1

PKC = experiment: MARCKS phosphorylation (PKC activity) in A2058 cells, Western blot; conditions: 100 μM Box5 overnight, rWnt-5a 0.2 μg/ml
Procedure: as §2, with “Thereafter the membranes were incubated for 1 h at room temperature or overnight at 4° C. with the indicated primary Ab (1:25,000 for β-actin; 1:1,000 for Wnt-5a and 1:1,000 for TGF-β1) in 2% non-fat milk or 1.5% BSA. After extensive washing in PBS with 0.2% Tween, the membranes were incubated for 1 h with a horseradish peroxidase-conjugated secondary Ab in 2% non-fat milk or 1.5% BSA and again extensively washed.” left out
In the present study the level of PKC auto-phosphorylation (Weeraratna et al., 2002, Dissanayake et al., 2007) was not estimated since its relation to PKC kinase activity is unclear. Instead the effects of Wnt-5a and Box5 on the phosphorylation of the endogenous PKC substrate MARCKS were analyzed as a direct means of estimating the activity level of PKC in the melanoma cells. […]

HTB63 melanoma cells [7] = experiment: Wound-healing assay (migration), HTB63 cells; conditions: 100 μM peptide in conditioned medium containing secreted Wnt-5a
Procedure: as §3

TGF-β1: human recombinant TGF-β1 protein from R&D Systems
Effect on migration of A2058 cells in the invasion assay (A2058 melanoma cells [1]; 5 ng/ml TGF-β1, 24 hours): inhibited
Concentration giving near maximal Wnt-5a expression ([2]; TGF-β1): 5 ng/mL
Wnt-5a protein expression in A2058 cells ([2]; different concentrations of recombinant TGF-β1, 36 h): increased expression
Effect on migration of A2058 cells (A2058 melanoma cells [3]; 5 ng/ml TGF-β1): increased
Concentration giving maximal effect on adhesion of A2058 cells (A2058 melanoma cells [4]): 5 ng/mL
Effect on adhesive capacity of A2058 cells (A2058 melanoma cells [4]): stimulated

C[N+](C)(C)CCOC(N)=O [carbachol, reference compound]
Cytosolic Ca^2+ response in A2058 cells, control G-protein coupled receptor ligands [5]: prompt responses

endothelin-1: G-protein coupled control receptor ligand from Sigma Aldrich (CSCSSLMDKECVYFCHLDIIW; disulfide 1-15, 3-11; ends not checked; UniProt P05305 53-73, looked up) [reference compound]
Cytosolic Ca^2+ response in A2058 cells, control G-protein coupled receptor ligands [5]: prompt responses

t-boc-Met-Asp-Gly-Cys-Glu-Leu (Boc-MDGCEL) [Box5, novel Wnt-5a-derived N-butyloxycarbonyl hexapeptide (Met-Asp-Gly-Cys-Glu-Leu), Wnt-5a antagonist]
Effect on charbacol-induced Ca^2+ signaling ([5]; 100 μM Box5, charbacol 5 μM): no significant effect
Effect on endothelin-1-induced Ca^2+ signaling ([5]; 100 μM Box5, endothelin-1 10 nM): no significant effect
Inhibition of Wnt-5a-induced Ca^2+ signal (peak values) ([5]; 100 μM Box5 overnight pre-incubation, 0.1 μg/ml Wnt-5a): more than 70%
Effect on invasion of HTB63 cells (endogenous Wnt-5a) (HTB63 melanoma cells [6]): inhibit
Effect on Wnt-5a-induced invasion of A2058 cells (A2058 melanoma cells [1]; 100 μM Box5, 0.2 μg/ml Wnt-5a, 24 hours): abolished
Effect on basal invasion of A2058 cells (A2058 melanoma cells [1]; 100 μM Box5, 24 hours): no effect
Effect on Wnt-5a-induced MARCKS phosphorylation (PKC): inhibited; also recorded: abolished
Effect on Wnt-5a-induced migration of A2058 cells (A2058 melanoma cells [3]; 100 μM Box5, 0.2 μg/ml Wnt-5a, wound area closed over 0-48 hours): abolished
Effect on intrinsic (basal) migration of A2058 cells (A2058 melanoma cells [3]; 100 μM Box5, no Wnt-5a, wound area closed over 0-48 hours): no effect
Effect on TGF-β1-induced migration of A2058 cells (A2058 melanoma cells [3]; 100 μM Box5 pre-incubated 40 minutes, 5 ng/ml TGF-β1): abolished; also recorded: blocked
Effect on migration of HTB63 cells (HTB63 melanoma cells [7]): inhibits

CC(=O)OCOC(=O)CN(CC(=O)OCOC(C)=O)c1ccc(C)cc1OCCOc1cc(C)ccc1N(CC(=O)OCOC(C)=O)CC(=O)OCOC(C)=O [MAPT/AM, reference compound]
Effect on Wnt-5a-stimulated cytosolic Ca^2+ signal ([5]; 10 μM MAPT/AM for 30 minutes, rWnt-5a 0.1 μg/ml): inhibited
Effect on pro-invasive effect of Wnt-5a on A2058 cells (A2058 melanoma cells [1]; 10 μM MAPT/AM 30 minutes pre-incubation, then 1 μM for 24 hours): completely abolished

B1: Wnt-3a: human recombinant Wnt-3a protein, canonical Wnt ligand (protein, UniProt P56704 19-352, looked up)
Protein Wnt-3a: SYPIWWSLAVGPQYSSLGSQPILCASIPGLVPKQLRFCRNYVEIMPSVAEGIKIGIQECQHQFRGRRWNCTTVHDSLAIFGPVLDKATRESAFVHAIASAGVAFAVTRSCAEGTAAICGCSSRHQGSPGKGWKWGGCSEDIEFGGMVSREFADARENRPDARSAMNRHNNEAGRQAIASHMHLKCKCHGLSGSCEVKTCWWSQPDFRAIGDFLKDKYDSASEMVVEKHRESRGWVETLRPRYTYFKVPTERDLVYYEASPNFCEPNPETGSFGTRDRTCNVSSHGIDGCDLLCCGRGHNARAERRREKCRCVFHWCCYVSCQECTRVYDVHTCK
Stimulation of invasion of A2058 cells (A2058 melanoma cells [1]; 0.1 μg/ml Wnt-3a, 24 hours): not seen
